Measurements as given in patent US12644099B2, “Methods for making T cell compositions” (2seventy bio, Inc., priority 2014, dated 2026).
Entries after “also recorded” stand apart in the source; their conditions may differ.

Key:
[1] = test system: multiple myeloma tumors (RPMI-8226); assay: Anti-tumor activity of cultured anti-BCMA CAR T cells in sub cutaneous multiple myeloma tumor model; type: in vivo, mice; details: 100 mm^3 sub cutaneous RPMI-8226 tumors; 1×10^6 CAR-positive cells infused
Method: Anti-BCMA CAR T cells treated with MK-2206, TCN, or ZSTK474 as described in Example 3 were tested to evaluate whether increased CD62L expression was associated with increased anti-tumor activity. […] Animals with 100 mm^3 sub cutaneous multiple myeloma tumors (RPMI-8226) were infused with equivalent CAR T cell doses (1×10^6 CAR-positive cells).

anti-BCMA CAR T cells = assay: CD62L expression on anti-BCMA CAR T cells by flow cytometry at the end of culture with inhibitor; type: cell-based; details: ten days of culture with IL-2 and optimized dose of inhibitor; three normal donors
Method: CAR T cells were cultured with either MK-2206 or triciribine phosphate—TCN (AKT inhibitors) or ZSTK474 (PI3K inhibitor). CAR T cells specific for B cell maturation antigen (BCMA) were used in these set of experiments. CAR T cell cultures were performed using a system directly scalable to large clinical manufacturing processes. […] 2×10^8 transducing units of lentivirus encoding anti-BCMA CARs were added one day after culture initiation. […] At the end of culture, the anti-BCMA CAR T cells were interrogated for phenotype. Expression of CD62L on anti-BCMA CAR T cells was assessed by flow cytometry at the end of culture. Anti-BCMA CAR T cells were specifically identified using recombinant human BCMA-IgG Fc conjugated to PE. CD62L expression was determined with a co-stain using an antibody specific to CD62L. […] (FIG. 3).

T cells [2] = assay: T cell proliferation (CellTrace Violet dilution, flow cytometry) of PBMC-derived T cells cultured with AKT inhibitor; type: cell-based
Method: The purpose of this experiment was to determine the effect of Akt inhibitors on T cell proliferation. The impact of MK-2206 (Selleckchem) on T cell proliferation was assessed by measuring T cell division. Peripheral blood mononuclear cells (PBMC) are a heterogeneous cellular population containing T cells. PBMC were harvested from normal donors and labeled with a fluorescent dye (CellTrace® Violet, Molecular Probes), whose intensity is progressively diluted by a factor of two with each cell division. The labeled PBMCs were used as a source of cells for T cell expansion. […] The impact of MK-2206 on cell division was assayed by evaluating CellTrace Violet dilution with flow cytometry after the addition of 0.025 μM, 0.074 μM, 0.222 μM, 0.67 μM, or 2.0 μM, MK-2206 to the T cultures at day 0. […] A pairwise t test was performed on all day seven cultures; (each concentration of MK-2206 was compared to 0 μM MK-2206: the cultures were not statistically different at the p≤0.05 level).

Daudi tumor = assay: Anti-tumor activity of cultured anti-BCMA CAR T cells in aggressive Daudi tumor model; type: in vivo
Description: Daudi tumor cells express a low level of BCMA protein and can be effectively treated using anti-BCMA CAR T cells.

T cells [3] = assay: CD62L expression on T cells treated with MK-2206; type: cell-based
Method: The purpose of this experiment was to determine the effect of Akt inhibitors on T cell markers for T cell potency. The impact of MK-2206 (Selleckchem) on T cell potency was assessed by measuring CD62L expression in the T cell cultures manufactured in Example 1. Mouse models have shown that CD62L expression identifies potent T cells; T cells with greater anti-tumor efficacy after adoptive transfer. […] FIG. 2. A pairwise T test was performed on all day seven cultures (each concentration of MK-2206 was compared to 0 μM MK-2206: *p<0.05, **p<0.01).

RPMI-8226 = assay: Persistence of anti-BCMA CAR T cells: RPMI-8226 tumor rechallenge; type: in vivo, mice; details: rechallenged 13 days later with RPMI-8226 on the opposite flank after complete regression
Method: Persistence of anti-BCMA CAR T cells was evaluated by re-challenging tumors in mice that had complete regression.

SMILES	anti-tumor activity of anti-BCMA CAR T cells cultured with the agent [1]	CD62L expression on anti-BCMA CAR T cells compared to cultures with IL-2 alone (anti-BCMA CAR T cells)	T cell division / proliferation compared to vehicle or non-treated controls (T cells [2]; seven days of culture, 0.025-2.0 μM MK-2206 with IL-2, pairwise t test p≤0.05)	T cell division / proliferation compared to no treatment control (T cells [2]; three days of culture, 0.025-2.0 μM MK-2206 with IL-2, CD3 and CD28 antibodies)	anti-tumor activity (Daudi tumor progression) of anti-BCMA CAR T cells cultured with the agent (Daudi tumor)	CD62L expression on T cells compared to no treatment control (T cells [3]; seven days of culture in the presence of IL-2, all concentrations tested)	CD62L expression on T cells compared to no treatment control (T cells [3]; three days of culture with MK-2206)	tumor outgrowth / engraftment after rechallenge in animals treated with anti-BCMA CAR T cells cultured with the agent (RPMI-8226)
CN1N=C(N)c2cn([C@@H]3O[C@H](COP(=O)(O)O)[C@@H](O)[C@H]3O)c3ncnc1c23 [TCN, triciribine phosphate]	did not show an anti-tumor response; also recorded: completely abolished any anti-tumor responses	not	–	–	–	–	–	–
NC1(c2ccc(-c3nc4ccn5c(=O)[nH]nc5c4cc3-c3ccccc3)cc2)CCC1 [MK-2206]	–	significantly higher CD62L expression	no statistically significant differences in T cell division; also recorded: not substantially different	did not substantially decrease T cell division; also recorded: only slightly decreased	complete tumor regression	significantly increases CD62L expression at all concentrations; also recorded: significant higher levels of CD62L expression	not substantially different	–
FC(F)c1nc2ccccc2n1-c1nc(N2CCOCC2)nc(N2CCOCC2)n1 [ZSTK474]	–	significantly higher CD62L expression	–	–	complete tumor regression	–	–	none of the animals treated with ZSTK474-cultured anti-BCMA CAR T cells had any evidence of tumor engraftment
